Each molecule was assayed against T1, JAK3 (Homo sapiens, UniProt P52333) (assay: Inhibition of JAK3 kinase, LANCE Ultra TR-FRET assay). Conditions: 2x ATP 8 μM, 15 min pre-incubation, 90 min reaction, 23° C.
T1 construct: purchased Invitrogen PV4080
T1 sequence (P52333 1-1124): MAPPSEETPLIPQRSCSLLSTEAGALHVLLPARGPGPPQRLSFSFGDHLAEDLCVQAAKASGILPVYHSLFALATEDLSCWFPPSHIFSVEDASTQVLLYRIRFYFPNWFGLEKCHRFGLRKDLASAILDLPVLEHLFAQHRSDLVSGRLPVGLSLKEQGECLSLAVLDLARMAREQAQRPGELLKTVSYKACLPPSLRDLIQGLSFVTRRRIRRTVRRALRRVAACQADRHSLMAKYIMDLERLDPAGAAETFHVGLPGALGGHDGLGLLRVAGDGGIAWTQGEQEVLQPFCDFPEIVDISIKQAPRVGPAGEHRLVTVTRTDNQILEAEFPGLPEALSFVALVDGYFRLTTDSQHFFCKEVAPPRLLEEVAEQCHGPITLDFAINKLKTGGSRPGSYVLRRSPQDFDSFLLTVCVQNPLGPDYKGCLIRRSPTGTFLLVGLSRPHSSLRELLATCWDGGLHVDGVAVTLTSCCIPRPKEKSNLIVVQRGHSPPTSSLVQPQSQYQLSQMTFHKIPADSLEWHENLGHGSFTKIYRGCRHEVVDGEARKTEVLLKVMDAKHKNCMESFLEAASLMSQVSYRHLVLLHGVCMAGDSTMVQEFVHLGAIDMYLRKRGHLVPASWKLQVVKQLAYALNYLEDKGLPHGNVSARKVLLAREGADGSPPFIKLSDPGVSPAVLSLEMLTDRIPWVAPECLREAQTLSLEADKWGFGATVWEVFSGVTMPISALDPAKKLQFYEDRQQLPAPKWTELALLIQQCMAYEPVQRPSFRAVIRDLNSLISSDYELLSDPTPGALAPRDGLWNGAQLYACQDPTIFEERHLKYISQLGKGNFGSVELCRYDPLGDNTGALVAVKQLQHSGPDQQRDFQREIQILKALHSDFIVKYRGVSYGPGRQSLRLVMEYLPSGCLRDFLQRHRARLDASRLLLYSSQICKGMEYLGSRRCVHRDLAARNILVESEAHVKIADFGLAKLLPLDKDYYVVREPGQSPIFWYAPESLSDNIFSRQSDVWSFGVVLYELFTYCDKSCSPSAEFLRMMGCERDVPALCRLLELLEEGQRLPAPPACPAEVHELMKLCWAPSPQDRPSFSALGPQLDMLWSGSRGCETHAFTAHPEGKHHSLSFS
Format: biochemical
Description: (§1) Exemplary compounds were assayed to determine potency in inhibiting activity of JAK1-3 and TYK2 kinases by determining IC50 values.
(§2) The sources of test materials and equipment are as follows: JAK1 (Invitrogen, Cat. No PV4775), JAK2 (Invitrogen, Cat. No PV4210), JAK3 (Invitrogen, Cat. No PV4080), TYK2 (Invitrogen, Cat. No PR8440C), ATP (Sigma, Cat. No. A7699-1G), DMSO (Sigma, Cat. No. D2650), DTT (Sigma, Cat. No. 43815), 384 wells_compound plate (Greiner, Cat. No. 781280), 384 wells_assay plate (Perkin Elmer, Cat. No. 6007299), LANCE Ultra ULight™-JAK-1 peptide (Perkin Elmer, Cat. No. TRF0121), LANCET™ Eu-W1024 Anti-phosphotyrosine (PT66) (Perkin Elmer, Cat. No. AD0069), LANCET™ Detection Buffer(Perkin Elmer, Cat. No. CR97-100).
(§3) The concentrations of test compounds varied from 100 μM to 1.7 nM with 3-fold dilution, 11 points, in duplicates while the concentrations of the reference compound, Tofacitinib, varied from 1 μM to 0.017 nM with 3-fold dilution, 11 points, in duplicates.
(§4) The assay buffer contained 50 mM HEPES (pH 7.5), 0.01% Brij-35, 10 mM MgCl2, 1 mM EDTA, 2 mM DTT. Incubations were carried out at 23° C.
(§5) Prior to the assay, enzyme, peptide substrate and serially diluted test compounds were pre-incubated together in assay buffer (5 μL) for 15 minutes (peptide substrate concentration: 50 nM; JAK enzyme concentrations: 2 nM JAK1; […]; […] and 4 nM TYK2). And the assay was initiated by the addition of 5 μL assay buffer containing 2× final ATP concentration (these are the 2×ATP concentrations: 76 μM JAK1; 24 μM JAK2; 8 μM JAK3 and 30 μM TYK2). Following the 90-minute incubation, antibody conjugated with Eu is dissolved in detection buffer to add into wells and then incubated for 60 minutes. The 10 μL detection buffer contains EDTA to stop the enzymatic reaction. The plate is analyzed by Perkin Elmer Envision on TR-FRET mode. The high ratio of 665/615 represents no inhibition of kinase reaction while the low ratio of 665/615 represents complete inhibition of kinase reaction.
(§6) Curves are fit by XLFIT5 as inhibition rate % vs. log [compound concentration] using 4 parameters logistic model 205.
(§7) In the table, “A” indicates an IC50 of less than 100 nM, “B” indicates an IC50 range from 100 nM to 500 nM; “C” indicates an IC50 range from 500 nM to 2 μM; and “D” indicates an IC50 greater than 2 μM. Also, “na” indicates data is not available.

Structure (SMILES) | IC50 [nM]
O=C(NC[C@@H]1CC[C@H]1O)c1noc2c1CN(c1ncnc3[nH]ccc13)CC2 (relative stereo) [Compound 150-1] | 100 to 500
O=C(NC[C@@H]1CC[C@@H]1O)c1noc2c1CN(c1ncnc3[nH]ccc13)CC2 (relative stereo) [Compound 150-2] | < 100
O=C(NCCC(F)(F)F)c1nn(C2CCNCC2)c2c1CN(c1ncnc3[nH]ccc13)CC2 [Compound 101] | 500 to 2000
O=C(NCCC(F)(F)F)c1nn(CCc2cccnc2)c2c1CN(c1ncnc3[nH]ccc13)CC2 [Compound 106] | 100 to 500
Cn1nc(C(=O)NCCC(F)(F)F)c2c1CCN(c1ncnc3[nH]ccc13)C2 [Compound 107] | < 100
O=C(NCCC(F)(F)F)c1nn(CCCc2ccccn2)c2c1CN(c1ncnc3[nH]ccc13)CC2 [Compound 108] | 100 to 500
O=C(NCCC(F)(F)F)c1nn(Cc2ccccc2)c2c1CN(c1ncnc3[nH]ccc13)CC2 [Compound 111] | < 100
CCn1nc(C(=O)NCCC(F)(F)F)c2c1CCN(c1ncnc3[nH]ccc13)C2 [Compound 112] | < 100
C=CCn1nc(C(=O)NCCC(F)(F)F)c2c1CCN(c1ncnc3[nH]ccc13)C2 [Compound 113] | < 100
O=C(NCCC(F)(F)F)c1nn(-c2ccccc2)c2c1CN(c1ncnc3[nH]ccc13)CC2 [Compound 114] | < 100
O=C(NCCC(F)(F)F)c1nn(CCCc2ccccc2)c2c1CN(c1ncnc3[nH]ccc13)CC2 [Compound 115] | 100 to 500
O=C(NCCC(F)(F)F)c1nn(CCCCc2ccccc2)c2c1CN(c1ncnc3[nH]ccc13)CC2 [Compound 116] | 100 to 500
O=C(NCCC(F)(F)F)c1nn(C2CCC2)c2c1CN(c1ncnc3[nH]ccc13)CC2 [Compound 117] | < 100
O=C(NCCC(F)(F)F)c1nn(C2CCOCC2)c2c1CN(c1ncnc3[nH]ccc13)CC2 [Compound 118] | 100 to 500

Each molecule was assayed against T2, JAK1 (Homo sapiens, UniProt P23458) (assay: Inhibition of JAK1 kinase, LANCE Ultra TR-FRET assay). Conditions: 2 nM JAK1, 2x ATP 76 μM, 15 min pre-incubation, 90 min reaction, 23° C.
T2 construct: purchased Invitrogen PV4775
Format: biochemical
Description: as §1, §2, §3, §4, §5, §6, §7

T2 sequence (P23458 whole entry): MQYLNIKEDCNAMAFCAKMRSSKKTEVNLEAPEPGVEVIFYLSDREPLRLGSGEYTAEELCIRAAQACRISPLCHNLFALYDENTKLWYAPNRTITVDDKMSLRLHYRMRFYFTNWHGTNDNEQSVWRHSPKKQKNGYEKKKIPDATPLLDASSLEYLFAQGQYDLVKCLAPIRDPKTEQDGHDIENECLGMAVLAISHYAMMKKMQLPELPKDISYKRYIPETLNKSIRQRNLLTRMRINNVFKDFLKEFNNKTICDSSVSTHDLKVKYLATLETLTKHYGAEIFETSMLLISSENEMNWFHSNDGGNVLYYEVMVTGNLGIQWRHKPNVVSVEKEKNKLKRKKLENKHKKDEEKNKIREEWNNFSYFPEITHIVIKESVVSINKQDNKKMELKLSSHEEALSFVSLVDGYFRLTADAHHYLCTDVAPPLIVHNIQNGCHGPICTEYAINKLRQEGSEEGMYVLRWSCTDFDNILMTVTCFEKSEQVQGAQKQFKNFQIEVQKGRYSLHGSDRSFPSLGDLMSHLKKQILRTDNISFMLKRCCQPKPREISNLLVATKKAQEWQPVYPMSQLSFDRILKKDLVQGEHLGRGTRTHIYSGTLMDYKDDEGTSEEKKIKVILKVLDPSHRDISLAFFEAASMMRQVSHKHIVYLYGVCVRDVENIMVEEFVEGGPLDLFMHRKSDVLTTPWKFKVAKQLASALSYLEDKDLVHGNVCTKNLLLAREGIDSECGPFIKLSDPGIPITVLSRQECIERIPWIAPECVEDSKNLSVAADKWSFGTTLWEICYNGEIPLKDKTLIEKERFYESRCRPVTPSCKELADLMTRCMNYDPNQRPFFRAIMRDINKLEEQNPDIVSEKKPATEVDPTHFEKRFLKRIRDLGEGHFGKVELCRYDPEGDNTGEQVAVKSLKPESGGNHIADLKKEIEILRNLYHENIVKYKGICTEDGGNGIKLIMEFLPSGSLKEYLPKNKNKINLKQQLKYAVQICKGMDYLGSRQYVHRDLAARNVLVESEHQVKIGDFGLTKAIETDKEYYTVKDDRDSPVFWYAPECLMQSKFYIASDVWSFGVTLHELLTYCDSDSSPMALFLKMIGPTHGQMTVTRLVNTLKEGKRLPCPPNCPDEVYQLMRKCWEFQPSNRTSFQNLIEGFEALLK

Structure (SMILES) | IC50 [nM]
O=C(NC[C@@H]1CC[C@H]1O)c1noc2c1CN(c1ncnc3[nH]ccc13)CC2 (relative stereo) [Compound 150-1] | 500 to 2000
O=C(NC[C@@H]1CC[C@@H]1O)c1noc2c1CN(c1ncnc3[nH]ccc13)CC2 (relative stereo) [Compound 150-2] | 100 to 500
O=C(NCCC(F)(F)F)c1nn(C2CCNCC2)c2c1CN(c1ncnc3[nH]ccc13)CC2 [Compound 101] | > 2000
O=C(NCCC(F)(F)F)c1nn(CCc2cccnc2)c2c1CN(c1ncnc3[nH]ccc13)CC2 [Compound 106] | > 2000
Cn1nc(C(=O)NCCC(F)(F)F)c2c1CCN(c1ncnc3[nH]ccc13)C2 [Compound 107] | < 100
O=C(NCCC(F)(F)F)c1nn(CCCc2ccccn2)c2c1CN(c1ncnc3[nH]ccc13)CC2 [Compound 108] | > 2000
O=C(NCCC(F)(F)F)c1nn(Cc2ccccc2)c2c1CN(c1ncnc3[nH]ccc13)CC2 [Compound 111] | 100 to 500
CCn1nc(C(=O)NCCC(F)(F)F)c2c1CCN(c1ncnc3[nH]ccc13)C2 [Compound 112] | 100 to 500
C=CCn1nc(C(=O)NCCC(F)(F)F)c2c1CCN(c1ncnc3[nH]ccc13)C2 [Compound 113] | 100 to 500
O=C(NCCC(F)(F)F)c1nn(-c2ccccc2)c2c1CN(c1ncnc3[nH]ccc13)CC2 [Compound 114] | 100 to 500
O=C(NCCC(F)(F)F)c1nn(CCCc2ccccc2)c2c1CN(c1ncnc3[nH]ccc13)CC2 [Compound 115] | 500 to 2000
O=C(NCCC(F)(F)F)c1nn(CCCCc2ccccc2)c2c1CN(c1ncnc3[nH]ccc13)CC2 [Compound 116] | 100 to 500
O=C(NCCC(F)(F)F)c1nn(C2CCC2)c2c1CN(c1ncnc3[nH]ccc13)CC2 [Compound 117] | 100 to 500
O=C(NCCC(F)(F)F)c1nn(C2CCOCC2)c2c1CN(c1ncnc3[nH]ccc13)CC2 [Compound 118] | 500 to 2000

What follows are molecules tested against T3, JAK2 (Homo sapiens, UniProt O60674) (assay: Inhibition of JAK2 kinase, LANCE Ultra TR-FRET assay). Conditions: 2x ATP 24 μM, 15 min pre-incubation, 90 min reaction, 23° C.
T3 construct: purchased Invitrogen PV4210
Format: biochemical
Description: as §1, §2, §3, §4, §5, §6, §7

T3 sequence (O60674 whole entry): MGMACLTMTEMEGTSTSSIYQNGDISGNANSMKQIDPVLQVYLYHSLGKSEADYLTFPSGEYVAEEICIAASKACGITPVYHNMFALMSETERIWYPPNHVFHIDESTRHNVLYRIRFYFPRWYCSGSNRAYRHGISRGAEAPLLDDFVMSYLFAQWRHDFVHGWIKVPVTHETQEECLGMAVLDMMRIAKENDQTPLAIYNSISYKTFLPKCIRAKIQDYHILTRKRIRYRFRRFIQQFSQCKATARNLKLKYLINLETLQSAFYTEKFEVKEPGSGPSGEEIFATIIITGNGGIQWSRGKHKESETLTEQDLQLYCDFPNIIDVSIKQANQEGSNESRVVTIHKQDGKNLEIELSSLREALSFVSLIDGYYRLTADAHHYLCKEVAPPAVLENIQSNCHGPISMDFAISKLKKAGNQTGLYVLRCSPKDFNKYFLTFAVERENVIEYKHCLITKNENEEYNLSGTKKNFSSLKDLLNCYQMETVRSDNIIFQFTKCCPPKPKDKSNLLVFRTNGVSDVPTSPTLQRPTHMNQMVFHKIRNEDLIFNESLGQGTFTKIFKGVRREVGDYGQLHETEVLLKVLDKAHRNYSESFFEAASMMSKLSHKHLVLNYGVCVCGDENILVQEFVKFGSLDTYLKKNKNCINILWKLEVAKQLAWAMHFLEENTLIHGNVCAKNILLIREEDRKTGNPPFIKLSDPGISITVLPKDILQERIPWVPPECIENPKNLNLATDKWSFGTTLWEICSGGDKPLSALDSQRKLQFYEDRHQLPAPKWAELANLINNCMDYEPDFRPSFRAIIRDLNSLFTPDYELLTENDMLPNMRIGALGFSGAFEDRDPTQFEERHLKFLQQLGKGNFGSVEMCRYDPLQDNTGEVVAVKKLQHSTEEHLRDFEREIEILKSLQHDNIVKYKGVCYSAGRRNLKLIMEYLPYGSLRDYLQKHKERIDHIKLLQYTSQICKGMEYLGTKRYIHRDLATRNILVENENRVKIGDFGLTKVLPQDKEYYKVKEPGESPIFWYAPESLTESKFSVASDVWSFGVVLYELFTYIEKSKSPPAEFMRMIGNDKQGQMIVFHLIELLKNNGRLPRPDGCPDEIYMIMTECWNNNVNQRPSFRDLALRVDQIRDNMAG

Structure (SMILES) | IC50 [nM]
O=C(NC[C@@H]1CC[C@H]1O)c1noc2c1CN(c1ncnc3[nH]ccc13)CC2 (relative stereo) [Compound 150-1] | 500 to 2000
O=C(NC[C@@H]1CC[C@@H]1O)c1noc2c1CN(c1ncnc3[nH]ccc13)CC2 (relative stereo) [Compound 150-2] | 100 to 500
O=C(NCCC(F)(F)F)c1nn(C2CCNCC2)c2c1CN(c1ncnc3[nH]ccc13)CC2 [Compound 101] | > 2000
O=C(NCCC(F)(F)F)c1nn(CCc2cccnc2)c2c1CN(c1ncnc3[nH]ccc13)CC2 [Compound 106] | > 2000
Cn1nc(C(=O)NCCC(F)(F)F)c2c1CCN(c1ncnc3[nH]ccc13)C2 [Compound 107] | 100 to 500
O=C(NCCC(F)(F)F)c1nn(CCCc2ccccn2)c2c1CN(c1ncnc3[nH]ccc13)CC2 [Compound 108] | > 2000
O=C(NCCC(F)(F)F)c1nn(Cc2ccccc2)c2c1CN(c1ncnc3[nH]ccc13)CC2 [Compound 111] | 500 to 2000
CCn1nc(C(=O)NCCC(F)(F)F)c2c1CCN(c1ncnc3[nH]ccc13)C2 [Compound 112] | 500 to 2000
C=CCn1nc(C(=O)NCCC(F)(F)F)c2c1CCN(c1ncnc3[nH]ccc13)C2 [Compound 113] | 100 to 500
O=C(NCCC(F)(F)F)c1nn(-c2ccccc2)c2c1CN(c1ncnc3[nH]ccc13)CC2 [Compound 114] | 500 to 2000
O=C(NCCC(F)(F)F)c1nn(CCCc2ccccc2)c2c1CN(c1ncnc3[nH]ccc13)CC2 [Compound 115] | > 2000
O=C(NCCC(F)(F)F)c1nn(CCCCc2ccccc2)c2c1CN(c1ncnc3[nH]ccc13)CC2 [Compound 116] | > 2000
O=C(NCCC(F)(F)F)c1nn(C2CCC2)c2c1CN(c1ncnc3[nH]ccc13)CC2 [Compound 117] | 500 to 2000
O=C(NCCC(F)(F)F)c1nn(C2CCOCC2)c2c1CN(c1ncnc3[nH]ccc13)CC2 [Compound 118] | > 2000

The molecules below were run against T4, TYK2 (Homo sapiens, UniProt P29597) (assay: Inhibition of TYK2 kinase, LANCE Ultra TR-FRET assay). Conditions: 4 nM TYK2, 2x ATP 30 μM, 15 min pre-incubation, 90 min reaction, 23° C., read-out: tyk IC50.
T4 construct: purchased Invitrogen PR8440C
Format: biochemical
Description: as §1, §2, §3, §4, §5, §6, §7

T4 sequence (P29597 whole entry): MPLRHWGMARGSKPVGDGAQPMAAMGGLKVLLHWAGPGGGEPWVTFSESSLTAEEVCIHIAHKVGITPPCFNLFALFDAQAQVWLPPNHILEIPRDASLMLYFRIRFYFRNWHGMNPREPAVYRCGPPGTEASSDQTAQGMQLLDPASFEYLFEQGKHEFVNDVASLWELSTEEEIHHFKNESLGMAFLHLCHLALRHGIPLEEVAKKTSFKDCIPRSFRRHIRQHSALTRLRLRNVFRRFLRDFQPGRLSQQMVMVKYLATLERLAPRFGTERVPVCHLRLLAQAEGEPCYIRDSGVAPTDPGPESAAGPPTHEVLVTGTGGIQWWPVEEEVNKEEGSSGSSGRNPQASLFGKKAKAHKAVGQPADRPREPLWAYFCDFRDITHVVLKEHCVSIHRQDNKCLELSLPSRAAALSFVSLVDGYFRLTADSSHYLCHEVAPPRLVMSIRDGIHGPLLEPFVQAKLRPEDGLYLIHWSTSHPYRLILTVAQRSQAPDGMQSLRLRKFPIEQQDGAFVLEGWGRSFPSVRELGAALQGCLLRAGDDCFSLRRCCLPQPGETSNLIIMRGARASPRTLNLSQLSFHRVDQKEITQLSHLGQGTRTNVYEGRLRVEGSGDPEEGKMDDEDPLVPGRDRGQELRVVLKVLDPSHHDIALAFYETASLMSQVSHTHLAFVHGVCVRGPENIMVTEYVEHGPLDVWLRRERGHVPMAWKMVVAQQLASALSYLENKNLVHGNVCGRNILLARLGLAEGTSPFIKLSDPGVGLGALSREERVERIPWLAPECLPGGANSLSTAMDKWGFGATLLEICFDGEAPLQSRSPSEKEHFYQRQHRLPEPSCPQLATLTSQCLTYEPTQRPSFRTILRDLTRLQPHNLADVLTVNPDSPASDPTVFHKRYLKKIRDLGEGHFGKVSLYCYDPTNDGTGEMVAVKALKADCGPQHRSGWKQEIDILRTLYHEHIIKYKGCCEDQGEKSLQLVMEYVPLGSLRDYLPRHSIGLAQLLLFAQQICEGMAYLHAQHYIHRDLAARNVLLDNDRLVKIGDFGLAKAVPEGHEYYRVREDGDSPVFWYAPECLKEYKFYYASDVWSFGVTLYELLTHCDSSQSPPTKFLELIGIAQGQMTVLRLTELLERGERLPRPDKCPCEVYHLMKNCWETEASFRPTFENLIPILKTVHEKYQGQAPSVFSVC

Structure (SMILES) | IC50 [nM]
O=C(NC[C@@H]1CC[C@H]1O)c1noc2c1CN(c1ncnc3[nH]ccc13)CC2 (relative stereo) [Compound 150-1] | > 2000
O=C(NC[C@@H]1CC[C@@H]1O)c1noc2c1CN(c1ncnc3[nH]ccc13)CC2 (relative stereo) [Compound 150-2] | > 2000
O=C(NCCC(F)(F)F)c1nn(C2CCNCC2)c2c1CN(c1ncnc3[nH]ccc13)CC2 [Compound 101] | > 2000
O=C(NCCC(F)(F)F)c1nn(CCc2cccnc2)c2c1CN(c1ncnc3[nH]ccc13)CC2 [Compound 106] | > 2000
Cn1nc(C(=O)NCCC(F)(F)F)c2c1CCN(c1ncnc3[nH]ccc13)C2 [Compound 107] | 500 to 2000
O=C(NCCC(F)(F)F)c1nn(CCCc2ccccn2)c2c1CN(c1ncnc3[nH]ccc13)CC2 [Compound 108] | > 2000
O=C(NCCC(F)(F)F)c1nn(Cc2ccccc2)c2c1CN(c1ncnc3[nH]ccc13)CC2 [Compound 111] | > 2000
CCn1nc(C(=O)NCCC(F)(F)F)c2c1CCN(c1ncnc3[nH]ccc13)C2 [Compound 112] | > 2000
C=CCn1nc(C(=O)NCCC(F)(F)F)c2c1CCN(c1ncnc3[nH]ccc13)C2 [Compound 113] | 500 to 2000
O=C(NCCC(F)(F)F)c1nn(-c2ccccc2)c2c1CN(c1ncnc3[nH]ccc13)CC2 [Compound 114] | 500 to 2000
O=C(NCCC(F)(F)F)c1nn(CCCc2ccccc2)c2c1CN(c1ncnc3[nH]ccc13)CC2 [Compound 115] | > 2000
O=C(NCCC(F)(F)F)c1nn(CCCCc2ccccc2)c2c1CN(c1ncnc3[nH]ccc13)CC2 [Compound 116] | > 2000
O=C(NCCC(F)(F)F)c1nn(C2CCC2)c2c1CN(c1ncnc3[nH]ccc13)CC2 [Compound 117] | > 2000
O=C(NCCC(F)(F)F)c1nn(C2CCOCC2)c2c1CN(c1ncnc3[nH]ccc13)CC2 [Compound 118] | > 2000
